From a compilation of properties of binary mixtures (doi:10.2298/jsc160317058s)

Experiment: xn = mol fraction of the nth substance listed
Conditions: 100 kPa

CCCC[n+]1ccn(C)c1.O=S(=O)([O-])C(F)(F)F + Nc1ccccc1
viscosity [mPa·s]
Conditions | 288.15 K | 293.15 K | 298.15 K | 303.15 K | 308.15 K | 313.15 K | 318.15 K | 323.15 K | 328.15 K | 333.15 K
x2 = 0 | – | 102 | 80.1 | 64 | 52.2 | 42.8 | 35.7 | 30 | 25.5 | 22
x2 = 0.1 | 110.3 | 85.3 | 67.5 | 54.6 | 44.4 | 36.6 | 30.6 | 25.9 | 22.17 | 19.07
x2 = 0.1995 | 90.9 | 70.6 | – | 45.5 | 37.2 | 30.7 | 25.8 | 21.9 | 18.82 | –
x2 = 0.3002 | – | – | 45.9 | – | 30.6 | 25.4 | 21.47 | – | 15.71 | 13.63
x2 = 0.3996 | – | – | – | – | – | – | – | 15.11 | 13.02 | 11.38
x2 = 0.8999 | 8.95 | 7.31 | 6.18 | 5.26 | 4.54 | 3.93 | 3.5 | – | – | 2.47

Nc1ccccc1 + CCCC[n+]1ccn(C)c1.O=S(=O)([O-])C(F)(F)F
x1 = 1
Conditions | viscosity [mPa·s]
288.15 K | 5.32
293.15 K | 4.41
298.15 K | 3.74
303.15 K | 3.2
308.15 K | 2.78
313.15 K | 2.45
318.15 K | 2.159
328.15 K | 1.738
333.15 K | 1.577

CCCC[n+]1ccn(C)c1.O=S(=O)([O-])C(F)(F)F + CN(C)c1ccccc1
x2 = 0
Conditions | viscosity [mPa·s]
288.15 K | 132.7
293.15 K | 102
298.15 K | 80.1
303.15 K | 64
313.15 K | 42.8
318.15 K | 35.7
323.15 K | 30
328.15 K | 25.5
333.15 K | 22

CN(C)c1ccccc1 + CCCC[n+]1ccn(C)c1.O=S(=O)([O-])C(F)(F)F
viscosity [mPa·s]
Conditions | 288.15 K | 293.15 K | 298.15 K | 303.15 K | 308.15 K | 313.15 K | 318.15 K | 323.15 K | 328.15 K | 333.15 K
x1 = 0.1 | 97.6 | 75.7 | 59.9 | 48.1 | 39.5 | 32.2 | – | 23 | – | –
x1 = 0.2 | 72.8 | 57.1 | 45.7 | 37 | – | – | 21.46 | 18.3 | 15.74 | 13.64
x1 = 0.2998 | – | 42.8 | 34.8 | 28.4 | 23.9 | 19.91 | 17.1 | 14.72 | 12.77 | 11.16
x1 = 0.397 | – | 31.5 | – | 21.69 | 18.27 | 15.46 | 13.4 | 11.63 | 10.19 | 8.98
x1 = 0.5045 | 26.1 | 21.17 | 17.76 | 14.77 | 12.85 | 11.04 | 9.68 | 8.5 | 7.52 | –
x1 = 0.5996 | 16.87 | 13.93 | 11.92 | 10.23 | 8.87 | 7.69 | 6.84 | 6.08 | 5.43 | 4.9
x1 = 0.6997 | – | 8.5 | 7.42 | 6.47 | 5.71 | – | – | 4.09 | 3.7 | 3.36
x1 = 0.7994 | 6 | 5.21 | 4.62 | 4.1 | 3.68 | 3.3 | 3.01 | 2.75 | 2.52 | 2.31
x1 = 0.8945 | 3.27 | 2.91 | – | 2.37 | 2.164 | 1.988 | – | 1.692 | – | –
x1 = 1 | – | – | 1.302 | 1.206 | 1.123 | 1.056 | 0.981 | – | 0.865 | 0.819
